16 compounds from patent publication US10035778B2, “Meta-azacyclic amino benzoic acid derivatives as pan integrin antagonists” (Saint Louis University, priority 2015, dated 2018) can be followed below.

What all share (type): binding
In assay [1] the target is Recombinant human integrin α8β1 (Homo sapiens (Human), UniProt P05556+P53708). Nature of the assay: Solid Phase Receptor Assay (SPRA) for α8β1 function. The settings on record: mouse nephronectin-coated plate. Here is the method: 7. Solid Phase Receptor Assay (SPRA) for α8β1 Function
Chain of Recombinant human integrin α8β1 (P53708 39-1012): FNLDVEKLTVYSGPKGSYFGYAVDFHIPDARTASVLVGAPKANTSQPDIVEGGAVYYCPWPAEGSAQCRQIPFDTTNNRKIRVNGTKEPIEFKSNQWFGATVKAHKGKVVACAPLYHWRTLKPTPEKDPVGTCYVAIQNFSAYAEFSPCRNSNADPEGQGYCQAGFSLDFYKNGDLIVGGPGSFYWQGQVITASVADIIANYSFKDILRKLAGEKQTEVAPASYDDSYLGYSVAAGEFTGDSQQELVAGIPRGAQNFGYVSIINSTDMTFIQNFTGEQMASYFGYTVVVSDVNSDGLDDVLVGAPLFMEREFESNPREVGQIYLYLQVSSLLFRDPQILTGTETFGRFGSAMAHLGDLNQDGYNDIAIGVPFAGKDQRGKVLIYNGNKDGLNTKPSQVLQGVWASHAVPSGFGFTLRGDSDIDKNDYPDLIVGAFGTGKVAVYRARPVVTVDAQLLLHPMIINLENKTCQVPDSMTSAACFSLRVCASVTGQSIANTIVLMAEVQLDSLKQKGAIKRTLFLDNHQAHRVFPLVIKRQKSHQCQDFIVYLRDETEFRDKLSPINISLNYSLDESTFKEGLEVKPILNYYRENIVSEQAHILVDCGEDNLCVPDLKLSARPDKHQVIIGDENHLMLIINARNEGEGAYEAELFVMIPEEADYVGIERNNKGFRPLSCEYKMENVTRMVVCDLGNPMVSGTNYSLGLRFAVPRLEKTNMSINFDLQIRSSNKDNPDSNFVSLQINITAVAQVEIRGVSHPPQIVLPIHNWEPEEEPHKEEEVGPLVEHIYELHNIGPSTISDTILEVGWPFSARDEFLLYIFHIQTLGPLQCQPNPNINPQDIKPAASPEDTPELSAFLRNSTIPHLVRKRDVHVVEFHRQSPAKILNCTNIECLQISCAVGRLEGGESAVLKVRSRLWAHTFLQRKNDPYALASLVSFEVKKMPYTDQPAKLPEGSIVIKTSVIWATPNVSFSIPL
Chain of Recombinant human integrin α8β1 (P05556 21-728): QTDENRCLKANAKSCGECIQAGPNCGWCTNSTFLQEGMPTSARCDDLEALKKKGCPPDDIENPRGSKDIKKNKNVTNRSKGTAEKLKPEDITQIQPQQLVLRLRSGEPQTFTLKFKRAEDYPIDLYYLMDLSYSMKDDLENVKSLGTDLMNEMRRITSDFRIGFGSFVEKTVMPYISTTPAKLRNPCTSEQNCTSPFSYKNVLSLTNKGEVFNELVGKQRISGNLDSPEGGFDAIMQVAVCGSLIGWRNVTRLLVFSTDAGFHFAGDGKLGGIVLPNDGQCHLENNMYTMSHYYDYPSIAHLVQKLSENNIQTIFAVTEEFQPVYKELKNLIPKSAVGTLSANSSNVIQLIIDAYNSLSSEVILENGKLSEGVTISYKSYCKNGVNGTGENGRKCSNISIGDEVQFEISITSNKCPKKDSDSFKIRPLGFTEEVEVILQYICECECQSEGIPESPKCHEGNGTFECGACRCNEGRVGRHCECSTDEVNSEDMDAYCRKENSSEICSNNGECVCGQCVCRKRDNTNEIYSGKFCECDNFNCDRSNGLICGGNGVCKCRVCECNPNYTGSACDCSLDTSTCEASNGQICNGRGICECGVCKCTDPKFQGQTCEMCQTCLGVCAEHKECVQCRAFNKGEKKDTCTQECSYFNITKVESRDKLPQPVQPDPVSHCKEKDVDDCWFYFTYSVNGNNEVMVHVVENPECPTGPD
Recombinant mouse nephronectin protein (R&D Systems, Inc, 4298-NP) diluted to 1 μg/mL in TBS+ buffer (25 mM Tris pH 7.4, 137 mM NaCl, 2.7 mM KCl, 1 mM CaCl2, 1 mM MgCl2, 1 mM MnCl2) was added to wells (50 μl/well) of a 96-well half-well transparent microtiter plate (Greiner 675061), and incubated overnight at 4° C. Wells were washed 3 times with 150 μL TBS+ and 150 μL of blocking buffer (TBS+ with 1% bovine serum albumin, Sigma A7906) were added. The plate was incubated for 1 hr at 37° C. and then washed 3× with TBS+. Recombinant human integrin α8β1 (R&D Systems, pre-launch) was diluted to 0.25 μg/mL in TBS+/0.1% bovine serum albumin. Compounds were diluted 1:100 into the integrin solution and 50 μL added to empty wells of the washed nephronectin-coated plate according to a standard template with each sample repeated in triplicate. After incubation for two hours at room temperature, the plate was washed 3× with 150 μL of TBS+. To each well, 50 μL of biotinylated anti-β antibody (R&D Systems, BAF1778) at 0.5 μg/mL in TBS+/0.1% BSA were added and the plate was covered and incubated for 1 hr at room temperature. After washing the plate 3× with 150 μL of TBS+ buffer, 50 μL of streptavidin-conjugated horseradish peroxidase (R&D Systems, DY998) diluted in TBS+ blocking buffer were added to the wells and the plate incubated for 20 min at room temperature. The plate was washed 3× with TBS+ followed by 50 μL of TMB substrate (Sigma T4444) added to each well and the plate incubated for 20 min at room temperature. Plates were read by colorimetric detection at 650 nm wavelength using a Tecan Safire II plate reader. Concentration-response curves were constructed by non-linear regression (best fit) analysis, and IC50 values were calculated for each compound.

Assay [2] deals with Recombinant human integrin αvβ1 (Homo sapiens (Human), UniProt P05556+P06756). Nature of the assay: Solid Phase Receptor Assay (SPRA) for αvβ1 function. The settings on record: fibronectin-coated plate. The procedure:
2. Solid Phase Receptor Assay (SPRA) for αvβ1 Function
Purified human fibronectin (R&D Systems, 1918-FN) diluted to 5 μg/mL in TBS+ buffer (25 mM Tris pH 7.4, 137 mM NaCl, 2.7 mM KCl, 1 mM CaCl2, 1 mM MgCl2, 1 mM MnCl2) was added to wells (50 μL/well) of a 96-well half-well transparent microtiter plate (Greiner 675061) and incubated overnight at 4° C. Wells were washed 3 times with 150 μL TBS+ and 150 μL of blocking buffer (TBS+ with 1% bovine serum albumin, Sigma A7906) were added. The plate was incubated for 1 hr at 37° C. and then washed 3× with TBS+ buffer. Recombinant human integrin αvβ1 (R&D Systems. 6579-AV) was diluted to 2.0 μg/mL in TBS+/0.1% bovine serum albumin. Compounds were diluted 1:100 into the integrin solution and 50 μL added to empty wells of the washed fibronectin-coated plate according to a standard template with each sample repeated in triplicate. After incubation for two hours at room temperature, the plate was washed 3× with 150 μL of TBS+ buffer. To each well, 50 μL of biotinylated anti-αv antibody (R&D Systems, BAF1219) at 1 μg/mL in TBS+/0.1% BSA were added and the plate covered and incubated for 1 hr at room temperature. After washing the plate 3× with 150 μL of TBS+ buffer, 50 μL of streptavidin-conjugated horseradish peroxidase (R&D Systems, DY998) diluted in TBS+ blocking buffer were added to the wells and the plate incubated for 20 min at room temperature. The plate was washed 3× with TBS+ buffer followed by 50 μL of TMB substrate (Sigma, T4444) added to each well and the plate incubated for 20 min at room temperature. Plates were read by colorimetric detection at 650 nm wavelength using a Tecan Safire II plate reader. Concentration-response curves were constructed by non-linear regression (best fit) analysis, and IC50 values were calculated for each compound.

For assay [3], the target named is Recombinant human integrin αvβ6 (Homo sapiens (Human), UniProt P06756+P18564). Nature of the assay: Solid Phase Receptor Assay (SPRA) for αvβ6 function. The settings on record: LAP-coated plate. The procedure: 5. Solid Phase Receptor Assay (SPRA) for αvβ6 Function
Chain of Recombinant human integrin αvβ6 (P06756 31-992): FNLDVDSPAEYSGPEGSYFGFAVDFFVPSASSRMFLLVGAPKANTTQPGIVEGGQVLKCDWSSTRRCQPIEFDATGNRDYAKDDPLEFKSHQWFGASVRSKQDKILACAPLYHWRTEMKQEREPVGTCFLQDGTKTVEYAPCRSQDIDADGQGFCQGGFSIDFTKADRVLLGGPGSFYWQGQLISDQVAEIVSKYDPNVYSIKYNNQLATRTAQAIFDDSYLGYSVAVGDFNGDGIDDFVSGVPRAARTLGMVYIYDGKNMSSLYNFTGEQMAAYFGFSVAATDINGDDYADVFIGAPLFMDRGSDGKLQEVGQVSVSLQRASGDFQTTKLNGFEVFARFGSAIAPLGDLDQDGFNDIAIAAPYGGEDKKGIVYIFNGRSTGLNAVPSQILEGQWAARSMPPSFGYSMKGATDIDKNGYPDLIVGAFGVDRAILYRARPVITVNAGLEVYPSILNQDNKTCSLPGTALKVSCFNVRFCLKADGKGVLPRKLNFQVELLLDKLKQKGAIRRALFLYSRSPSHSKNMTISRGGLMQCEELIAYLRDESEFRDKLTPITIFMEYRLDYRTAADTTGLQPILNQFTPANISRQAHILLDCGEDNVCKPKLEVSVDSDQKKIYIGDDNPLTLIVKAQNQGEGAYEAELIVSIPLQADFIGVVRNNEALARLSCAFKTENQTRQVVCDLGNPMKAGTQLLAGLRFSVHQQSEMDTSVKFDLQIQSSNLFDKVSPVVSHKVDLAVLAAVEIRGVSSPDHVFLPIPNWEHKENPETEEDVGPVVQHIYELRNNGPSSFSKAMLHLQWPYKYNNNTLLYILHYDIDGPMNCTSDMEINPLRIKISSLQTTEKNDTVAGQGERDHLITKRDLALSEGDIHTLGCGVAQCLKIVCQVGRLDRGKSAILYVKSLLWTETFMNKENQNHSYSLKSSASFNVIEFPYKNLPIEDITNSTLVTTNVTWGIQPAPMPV
Chain of Recombinant human integrin αvβ6 (P18564 22-707): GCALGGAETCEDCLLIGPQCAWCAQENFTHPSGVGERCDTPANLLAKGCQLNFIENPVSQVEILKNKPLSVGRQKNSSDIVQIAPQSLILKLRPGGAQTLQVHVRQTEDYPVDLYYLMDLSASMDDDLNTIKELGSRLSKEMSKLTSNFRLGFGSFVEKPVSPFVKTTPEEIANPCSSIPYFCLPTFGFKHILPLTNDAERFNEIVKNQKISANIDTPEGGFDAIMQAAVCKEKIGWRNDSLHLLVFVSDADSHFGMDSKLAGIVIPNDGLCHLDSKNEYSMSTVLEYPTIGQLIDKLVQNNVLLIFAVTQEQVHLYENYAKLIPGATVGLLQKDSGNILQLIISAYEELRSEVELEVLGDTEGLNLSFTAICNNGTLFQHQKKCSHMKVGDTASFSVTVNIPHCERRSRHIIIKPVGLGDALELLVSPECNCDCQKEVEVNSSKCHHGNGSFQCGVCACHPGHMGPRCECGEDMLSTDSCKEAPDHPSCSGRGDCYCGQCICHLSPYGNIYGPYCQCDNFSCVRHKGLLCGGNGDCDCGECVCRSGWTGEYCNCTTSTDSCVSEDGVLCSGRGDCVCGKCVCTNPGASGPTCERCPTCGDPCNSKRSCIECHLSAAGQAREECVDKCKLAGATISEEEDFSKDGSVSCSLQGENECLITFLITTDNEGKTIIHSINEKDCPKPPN
Recombinant human LAP (R&D Systems, 246-LP) diluted to 0.25 μg/mL in TBS+ buffer (25 mM Tris pH 7.4, 137 mM NaCl, 2.7 mM KCl, 1 mM CaCl2, 1 mM MgCl2, 1 mM MnCl2) was added to wells (50 μL/well) of a 96-well half-well transparent microtiter plate (Greiner 675061) and incubated overnight at 4° C. Wells were washed 3 times with 150 μL TBS+, and 150 μL of blocking buffer (TBS+ with 1% bovine serum albumin, Sigma A7906) were added. The plate was incubated for 1 hr at 37° C., and then washed 3× with TBS+ buffer. Recombinant human integrin αvβ6 (R&D Systems, 3817-AV) was diluted to 0.1 μg/mL in TBS+/0.1% bovine serum albumin. Compounds were diluted 1:100 into the integrin solution and then 50 μL added to empty wells of the washed LAP-coated plate according to a standard template with each sample repeated in triplicate. After incubation for two hours at room temperature, the plate was washed 3× with 150 μL of TBS+ buffer. To each well, 50 μL of biotinylated anti-αv antibody (R&D Systems, BAF1219) at 0.5 μg/mL in TBS+/0.1% BSA were added and the plate was covered and incubated for 1 hr at room temperature. After washing the plate 3× with 150 μL of TBS+ buffer, 50 μL of streptavidin-conjugated horseradish peroxidase (R&D Systems, DY998) diluted in TBS+ blocking buffer were added to the wells and the plate incubated for 20 min at room temperature. The plate was washed 3× with TBS+ buffer followed by 50 μL of TMB substrate (Sigma T4444) added to each well and the plate incubated for 20 min at room temperature. Plates were read by colorimetric detection at 650 nm wavelength using a Tecan Safire II plate reader. Concentration-response curves were constructed by non-linear regression (best fit) analysis, and IC50 values were calculated for each compound.

Chain of Recombinant human integrin αvβ1 (P06756 31-992): as the sequence (P06756 31-992) above
Chain of Recombinant human integrin αvβ1 (P05556 21-728): as the sequence (P05556 21-728) above

On to `O=C(O)C[C@H](NC(=O)CNC(=O)c1cncc(NC2=NCC(O)CN2)c1)c1cc(Cl)cc(Br)c1` (stereo partly drawn) [Example 8, (3S)-3-(3-bromo-5-chloro-phenyl)-3-[[2-[[5-[(5-hydroxy-1,4,5,6-tetrahydropyrimidin-2-yl)amino]pyridine-3-carbonyl]amino]acetyl]amino]propanoic acid], for which the IC50 in assay [1] is 0.6 nM; in assay [2], 1 nM; in assay [3], 0.4 nM.

Regarding `Cc1cc(Br)cc([C@H](CC(=O)O)NC(=O)CNC(=O)c2cc(O)cc(NC3=NCC(O)CN3)c2)c1` (stereo partly drawn) [Example 11, (3S)-3-[3-bromo-5-methyl-phenyl)-3-(2-(3-hydroxy-5-((5-hydroxy-1,4,5,6-tetrahydropyrimidin-2-yl)amino)benzamido)acetamido)propanoic acid], the IC50 in assay [1] was 0.7 nM; in assay [2], 0.4 nM; in assay [3] it was 0.5 nM.

With `O=C(O)C[C@H](NC(=O)CNC(=O)c1cc(O)cc(NC2=NCC(O)CN2)c1)c1cc(Cl)cc(C(F)(F)F)c1` (stereo partly drawn) [Example 5, (3S)-3-[3-chloro-5-(trifluoromethyl)phenyl)-3-(2-(3-hydroxy-5-((5-hydroxy-1,4,5,6-tetrahydropyrimidin-2-yl)amino)benzamido)acetamido]propanoic acid], the IC50 in assay [1] is 0.9 nM; in assay [2], 2 nM; in assay [3], 0.5 nM.

Take `O=C(O)C[C@H](NC(=O)CNC(=O)c1cc(O)cc(NC2=NCC(O)CN2)c1)c1cc(F)cc(Br)c1` (stereo partly drawn) [Example 13, (3S)-3-[3-bromo-5-fluoro-phenyl)-3-(2-(3-hydroxy-5-((5-hydroxy-1,4,5,6-tetrahydropyrimidin-2-yl)amino)benzamido)acetamido)propanoic acid]: the values for the IC50 in assay [1], in assay [2] and in assay [3] were 0.6 nM, 1 nM and 0.4 nM, respectively.

`Cc1ccc(O)c(C(CC(=O)O)NC(=O)CNC(=O)c2cccc(NC(=N)N)c2)c1` (stereo not drawn) [Example C8, reference compound]: the values for the IC50 in assay [1], in assay [2] and in assay [3] were 594 nM, 13 nM and 2 nM, respectively.

Turning to `N=C(N)Nc1cccc(C(=O)NCC(=O)NC(CC(=O)O)c2ccccc2)c1` (stereo not drawn) [Example C5, reference compound], the IC50 in assay [1] was determined as 383 nM; in assay [2] it was 17 ± 5 nM; in assay [3], 17 ± 2 nM.

On to `O=C(O)C[C@H](NC(=O)CNC(=O)c1cc(O)cc(NC2=NCC(O)CN2)c1)c1cc(Br)cc(Br)c1` (stereo partly drawn) [Example 1, (3S)-3-(3,5-dibromophenyl)-3-(2-(3-hydroxy-5-((5-hydroxy-1,4,5,6-tetrahydropyrimidin-2-yl)amino)benzamido)acetamido)propanoic acid], for which the IC50 in assay [1] was 1.3 nM; in assay [2], 2 ± 2 nM; in assay [3], 0.4 nM.

As to `O=C(O)C[C@H](NC(=O)CNC(=O)c1cc(O)cc(NC2=NCC(O)CN2)c1)c1cc(Cl)cc(C(F)F)c1` (stereo partly drawn) [Example 3, (3S)-3-[3-chloro-5-(difluoromethyl)phenyl)-3-(2-(3-hydroxy-5-((5-hydroxy-1,4,5,6-tetrahydropyrimidin-2-yl)amino)benzamido)acetamido]propanoic acid], the results for the IC50 in assay [1], in assay [2] and in assay [3] were 0.9 nM, 2 nM and 0.4 nM, respectively.

As for `O=C(O)C[C@H](NC(=O)CNC(=O)c1cc(O)cc(NC2=NCC(O)CN2)c1)c1cc(Br)cc(C(F)F)c1` (stereo partly drawn) [Example 4, (3S)-3-[3-bromo-5-(difluoromethyl)phenyl)-3-(2-(3-hydroxy-5-((5-hydroxy-1,4,5,6-tetrahydropyrimidin-2-yl)amino)benzamido)acetamido]propanoic acid], the IC50 in assay [1] was 0.6 nM; in assay [2], 2 nM; in assay [3], 0.4 nM.

With `O=C(O)C[C@H](NC(=O)CNC(=O)c1cc(O)cc(NC2=NCC(O)CN2)c1)c1cc(Cl)cc(Br)c1` (stereo partly drawn) [Example 6, (3S)-3-[3-bromo-5-chloro-phenyl)-3-(2-(3-hydroxy-5-((5-hydroxy-1,4,5,6-tetrahydropyrimidin-2-yl)amino)benzamido)acetamido]propanoic acid], the IC50 in assay [1] stood at 0.5 nM; in assay [2], 3 nM; in assay [3], 0.4 nM.

On to `O=C(O)C[C@H](NC(=O)CNC(=O)c1cc(O)cc(NC2=NCC(O)CN2)c1)c1cc(Cl)cc(OC(F)(F)F)c1` (stereo partly drawn) [Example 16, (3S)-3-[3-chloro-5-(trifluoromethoxy)phenyl)-3-(2-(3-hydroxy-5-((5-hydroxy-1,4,5,6-tetrahydropyrimidin-2-yl)amino)benzamido)acetamido)propanoic acid], for which the IC50 in assay [1] came out at 0.5 nM; in assay [2], 3 ± 2 nM; in assay [3], 0.5 nM.

Turning to `Cc1ccc(O)c(C(CC(=O)O)NC(=O)CNC(=O)c2cc(O)cc(NC3=NCC(O)CN3)c2)c1` (stereo not drawn) [Example C6, reference compound], the IC50 in assay [1] came out at 17 nM; in assay [2], 8 ± 6 nM; in assay [3] it was 1 nM.

Regarding `O=C(O)CC(NC(=O)CNC(=O)c1cc(O)cc(NC2=NCC(O)CN2)c1)c1cc(Cl)cc(Cl)c1O` (stereo not drawn) [Example C3, reference compound], the IC50 in assay [1] was 14 nM; in assay [2], 7 nM; in assay [3], 1 nM.

With `O=C(O)C[C@H](NC(=O)CNC(=O)c1cc(O)cc(NC2=NCC(O)CN2)c1)c1cc(Br)cc(OC(F)(F)F)c1` (stereo partly drawn) [Example 17, (3S)-3-(3-bromo-5-(trifluoromethoxy)phenyl)-3-(2-(3-hydroxy-5-((5-hydroxy-1,4,5,6-tetrahydropyrimidin-2-yl)amino)benzamido)acetamido)propanoic acid], the IC50 came out at 0.7 nM in assay [1], 4 ± 2 nM in assay [2] and 0.7 nM in assay [3].

Regarding `O=C(O)C[C@H](NC(=O)CNC(=O)c1cncc(NC2=NCC(O)CN2)c1)c1cc(Cl)cc(C(F)(F)F)c1` (stereo partly drawn) [Example 7], the values for the IC50 in assay [1], in assay [2] and in assay [3] were 0.6 nM, 1 nM and 0.3 nM, respectively.

With `Cc1cc(Cl)cc([C@@H](CC(=O)O)NC(=O)CNC(=O)c2cccc(NC3=NCCN3)c2)c1O` [Example C11, reference compound], the values for the IC50 in assay [1], in assay [2] and in assay [3] were 17 nM, 16 ± 4 nM and 4 nM, respectively.

For orientation: IC50 means the concentration that gives 50% inhibition.
